Laboratory results reported in ChEMBL document CHEMBL4622867, “An efficient synthetic approach toward a sporadic heterocyclic scaffold: 1,3-Oxathiol-2-ylidenes; alkaline phosphatase inhibition and molecular docking studies” (Bioorg Med Chem Lett, 2020).

Experiments:
[1] = Inhibition of bovine kidney TNAP; set-up: species or system Bos taurus
[2] = Inhibition of calf intestinal alkaline phosphatase; set-up: species or system Bos taurus
[3] = test system: HeLa; assay: Antiproliferative activity against human HeLa cells assessed as inhibition of cell growth by MTT assay relative to control; type: functional
[4] = organism: Bos taurus; assay: Inhibition of bovine kidney TNAP relative to control; set-up: concentration or dose not given beside the values; settings: concentration not given here
[5] = organism: Bos taurus; assay: Inhibition of calf intestinal alkaline phosphatase relative to control; set-up: concentration or dose not given beside the values; settings: concentration not given here

| SMILES | IC50 [1] | IC50 [2] | inhibition [4] | inhibition [5] | growth inhibition (GI) [3] |
| --- | --- | --- | --- | --- | --- |
| CCOC(=O)c1s/c(=N\C(=O)c2cccc(Br)c2)oc1C | 6.51 µM | 1160 nM | – | – | 4.61% |
| CCOC(=O)c1s/c(=N\C(=O)c2ccccc2[N+](=O)[O-])oc1C | – | – | 44.5% | 35.4% | 2.42% |
| CCOC(=O)c1s/c(=N\C(=O)c2cc(OC)c(OC)c(OC)c2)oc1C | – | – | 47.1% | 36.5% | 58.07% |
| CCOC(=O)c1s/c(=N\C(=O)c2ccccc2)oc1C | – | – | 39.1% | 30.4% | 69.03% |
| N[C@@H](Cc1ccccc1)C(=O)O [PHENYLALANINE] | – | 80200 nM | – | – | – |
| CCOC(=O)c1s/c(=N\C(=O)c2ccc(Cl)cc2)oc1C | – | – | 48.3% | 27.9% | – |

More lines, main results first:

| IC50 [1] | IC50 [2] | inhibition [4] | inhibition [5] | SMILES | growth inhibition (GI) [3] |
| --- | --- | --- | --- | --- | --- |
| 2.41 µM | 670 nM | – | – | CCOC(=O)c1s/c(=N\C(=O)CCCc2ccccc2)oc1C | 3.96% |
| 0.37 µM | – | – | 40.4% | CCOC(=O)c1s/c(=N\C(=O)c2ccc([N+](=O)[O-])cc2)oc1C | 21.53% |
| – | 2900 nM | 45.3% | – | CCOC(=O)c1s/c(=N\C(=O)c2cccc(Cl)c2)oc1C | 8.07% |
| – | – | 30.9% | 28.9% | CCOC(=O)c1s/c(=N\C(=O)c2cccc(C)c2)oc1C | 33.07% |
| – | – | 41.4% | 25.3% | CCOC(=O)c1s/c(=N\C(=O)Cc2ccccc2)oc1C | 4.15% |
| 19.2 µM | – | – | – | c1ccc([C@H]2CN3CCSC3=N2)cc1 [LEVAMISOLE] | – |
| 30.4 µM | – | – | 45.3% | CCOC(=O)c1s/c(=N\C(=O)c2ccccc2Cl)oc1C | 51.53% |
| – | – | 28.8% | 19.5% | CCOC(=O)c1s/c(=N\C(=O)c2ccccc2C)oc1C | 9.8% |
| – | – | 45.7% | 33.1% | CCOC(=O)c1s/c(=N\C(=O)c2ccco2)oc1C | 42.11% |
